Results published in patent EP4473961A1, “ORAL SOLID PHARMACEUTICAL FORMULATION COMPRISING METHADONE/LEVOMETHADONE AND OPTIONALLY NALOXONE” (L. MOLTENI & C. DEI FRATELLI ALITTI SOCIETA' DI ESERCIZIO …, priority 2023, dated 2024).

Tested on: crisis of withdrawal from morphine
Conditions: rat, in vivo

Question: What does the source list for `CCC(=O)C(CC(C)N(C)C)(c1ccccc1)c1ccccc1` (centres unmarked) [methadone]?
Answer: effect on withdrawal symptoms: significantly reduced the symptoms; values of the scores relative to the group treated with morphine alone: about 50%
